Results published in publication PMC9321663, “The DevTox Germ Layer Reporter Platform: An Assay Adaptation of the Human Pluripotent Stem Cell Test” (Toxics, 2022).
Where two headings read alike, the source gives them in different places.

Legend:
[1] = system: SOX17 (endoderm marker) in RUES2-GLR cells; assay: DevTox GLR-Endo assay: decrease in percent SOX17-positive cells (AEID 3094, Sox17_dn); conditions: for Emax / AC50 / IC50: Homo sapiens; for Hit Call: Table S2, SOX17-positive cells, cutoff 3*bmad; for HIT−CALL: tcpl plot AEID3094, COFF 20.3; for effect on SOX17-positive cells (in words): 48 h exposure during directed endoderm differentiation; for % Max Inhibition: maximum inhibition of SOX17-positive cells, reference chemical testing; for hit call designation (in words): DevTox GLR-Endo prediction against developmental toxicant classification
Experimental: (§1) The total test chemical incubation period was 48 h.
(§2) Assay plate controls included non-differentiated pluripotent cells maintained in complete Essential 8 Flex medium (baseline control), endoderm differentiated cells (differentiation control), endoderm differentiated cells treated with DMSO (0.2%) (solvent control), and TGF-ß receptor inhibitor SB431542 (1 µM)-treated cells (developmental toxicant-positive control) (Figure S3). All experiments were completed with a minimum of four biological replicates (n = 4).
(§3) (Supplementary Materials).

RUES2-GLR cells = assay: DevTox GLR-Endo assay: decrease in total cell count, cytotoxicity (AEID 3098, CellCount_dn); conditions: for Emax: Homo sapiens, read-out: Cell Count % Max Inhibition; for effect on cell counts (in words): reference chemical testing, increasing concentrations
Experimental: as §1, §2, §3

[2] = system: SOX17 (endoderm marker) in RUES2-GLR cells; assay: DevTox GLR-Endo assay: increase in percent SOX17-positive cells (AEID 3093, Sox17_up); assay type: cell-based, human; conditions: for Emax: Homo sapiens; for HIT−CALL: tcpl plot AEID3093, COFF 20.3
Experimental: as §1, §3

[3] = system: BRA (mesoderm marker) in RUES2-GLR cells; assay: DevTox GLR-Endo assay: increase in percent BRA-positive cells (AEID 3096, Bra_up); assay type: cell-based, human; conditions: for HIT−CALL: tcpl plot AEID3096, COFF 0.774; for MAX_MEAN: tcpl plot AEID3096, maximum mean response; for MAX_MED: tcpl plot AEID3096, maximum median response
Experimental: as §1, §3

[4] = cited from earlier work; for Development Toxicant Classification: Table S2; for Classification: developmental toxicant classification (Teratogen / Non-Teratogen) of reference and training chemicals, ref DOI per chemical: 10.1093/toxsci/kft239, 10.1093/toxsci/kfaa014, 10.1177/026119290203000204, 10.1038/s41598-020-59542-x; for DT Class.: developmental toxicant classification; for Developmental Toxicant Classification: reference chemicals
[5] = system: SOX2 (ectoderm and pluripotency marker) in RUES2-GLR cells; assay: DevTox GLR-Endo assay: increase in percent SOX2-positive cells (AEID 3095, Sox2_up); conditions: for MAX_MEAN: tcpl plot AEID3095, maximum mean response; for MAX_MED: tcpl plot AEID3095, maximum median response; for AC50 / Emax: Homo sapiens; for AC50: read-out: ga (winning model); for Emax: read-out: tp (winning model);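 for all read-outs here: cells exposed to test chemicals for 48 h in total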
Experimental: RUES2-GLR cells were seeded 24 h prior to differentiation initiation into vitronectin-coated 384-well CellCarrier Ultra plates (10.6 mm^2/well) (Perkin Elmer, Waltham, MA, USA). Vitronectin (0.5 µg/cm^2)-coated plates were prepared and stored at 4 °C, wrapped in parafilm, for less than seven days and incubated at room temperature for one hour prior to cell seeding. […] Cells were dispensed into 20 µL coating solution using a Certus FLEX Micro Dispenser (Fritz Gyger, Gwatt, Switzerland) with a 0.45 µm valve to a final volume of 100 µL and density of 2.8 × 10^3 cells per well.
Following a 24 h post-seeding incubation period (Time = 0 h) (Figure 3A), directed endoderm differentiation was initiated with the PSC Definitive Endoderm Induction kit (Gibco, Waltham, MA, USA). […] A target dilution series (0.002–200 µM) was generated by dispensing variable nanoliter volumes of test chemical and backfilling with a complementary volume of DMSO using Echo Cherry Pick software (v.1.6.2). Wells were backfilled with 50 µL of induction medium using a Certus FLEX Micro Dispenser with 0.45 µm valves. Test compound treatment plates were mixed on a Multi-Microplate Genie mixer at 700 rpm for 10 min and subsequently incubated for two hours in a humidified atmosphere at 37 °C with 5% CO2. Each chemical treatment (0 h–Medium A; 24 h–Medium B) were prepared the day of treatment. At 0 h, cell culture medium was aspirated from the assay plate at a rate of 1 µL/s and 40 µL of Medium A ± test chemical applied using a CyBio FeliX automated liquid handler (Analytik Jena, Jena, Germany). At 24 h, conditioned cell culture medium was aspirated and 40 µL of Medium B ± test chemical was applied. At 48 h, cells were prepared for high-content image acquisition by fixation and nuclear staining. The total test chemical incubation period was 48 h. For fixation, a 4% paraformaldehyde (PFA) solution was achieved by adding 40 µL of 8% PFA directly to cell culture medium using a CyBio FeliX liquid handler. […] Following an additional 30 min incubation period at room temperature, staining solution was aspirated, 50 µL of DPBS was added, and plate sealed with MicroAmp Optical Adhesive Film (Applied Biosystems, Waltham, MA, USA).
Images were acquired within 12 h post-fixation using an Opera Phenix High-Content Screening System (Perkin Elmer, Waltham, MA, USA). […] Cell identification and mean biomarker fluorescent intensities were calculated using Harmony image analysis software (Perkin Elmer, Waltham, MA, USA). Cell nuclei were identified using the object classifying algorithm C of the software with border objects excluded using the “Remove Border Objects” feature. Mean cell biomarker intensity statistics were gathered from each object and exported for further analysis using a custom script in Python version 3.7.4 [61] […] For each plate, pluripotent-negative control wells were used to establish baseline intensity values and a cutoff threshold for determining SOX17 and BRA biomarker-positive cells. Endoderm differentiated positive control wells were used to establish baseline intensity values and a cutoff threshold for SOX2-positive cells. Cells with a mean intensity five times the baseline median absolute deviation (5*bmad) above the median cell intensity for plate-based control population technical replicates were considered positive. Well-based cell counts, reflected by the sum of total counted objects from all fields, were used to calculate the percent responders for each respective biomarker and evaluate cytotoxicity. Well-level results were exported for data modeling in the ToxCast Pipeline.
The ToxCast Pipeline R package (tcpl v.2.0.2) was used to normalize, fit, and qualify concentration-response screening data [63].

in vitro = conditions: human
Experimental: as §1, §2, §3

H9 human ESC line = conditions: cited from earlier work
[6] = read-out: DevTox % Max Inhibition
[7] = read-out: ga (winning model), tcpl plot AEID3094, gain parameter of winning curve fit (log concentration, µM axis), hit calls only (converted)
[8] = Table S2, percent SOX17-positive cells, 48 h exposure
[9] = tcpl plot AEID3093, maximum mean response, read-out: MAX_MEAN
[10] = tcpl plot AEID3093, maximum median response, read-out: MAX_MED
[11] = chemicals common with quickPredict
[12] = 48 h, read-out: DevTox-GLR Endo AC50 (µM), SOX17 half-maximal activity concentration, 48 h exposure
[13] = cytotoxicity half-maximal concentration
[14] = read-out: maximum observed effect level class (% max inhibition)

Structure (SMILES) | Emax [1, 6] [%] | Emax ([1]; read-out: MAX_MEAN) [%] | Emax ([1]; read-out: MAX_MED) [%] | AC50 [1, 7] [µM] | Emax ([1]; read-out: tp (winning model)) [%] | Hit Call [1] | DevTox ACC [1, 8] [µM] | HIT−CALL [1] | Emax (RUES2-GLR cells) [%] | Cell Count ACC (RUES2-GLR cells; human, 48 h) [µM] | Emax [2, 9] [%] | Emax [2, 10] [%] | HIT−CALL [2] | HIT−CALL [3] | MAX_MEAN [3] [Percent Activity] | MAX_MED [3] [Percent Activity] | Development Toxicant Classification [4] | Classification [4] | MAX_MEAN [5] [Percent Activity] | MAX_MED [5] [Percent Activity] | further results
O=C1NC(=O)C(c2ccccc2)(c2ccccc2)N1 | 21 | 19.1 | 21 | 191 | 32.6 | Positive | 201.562 | 1 | 22.6 | 191.824 | 11.2 | 11.7 | 0 | 0 | 0.943 | 0.909 | Positive | Teratogen | 0.502 | 0.532 | DevTox-GLR Endo ACC ([1]; activity concentration at cutoff, SOX17-positive cells, 48 h exposure): 201.56 µM; DevTox-GLR Endo CC (RUES2-GLR cells; human, 48 h): 191.82 µM; DT Class. [4, 11]: Pos
Nc1cccc2c1CN(C1CCC(=O)NC1=O)C2=O (stereo not shown) [Lenalidomide] | 78.9 | 78.8 | 78.9 | 0.337 | 79.2 | Positive | 0.05026 | 1 | 44.2 |  | 10.3 | 9.38 | 0 | 0 | 0.843 | 0.842 | Positive | Teratogen | 0.674 | 0.697 | effect on SOX17-positive cells (in words) [1]: significant reductions in the SOX17-positive sub-population; IC50 ([1]; 48 h): 0.13 µM; % Max Inhibition ([1]; 48 h exposure): 44%; Cell Count ACC (RUES2-GLR cells; Table S2, 48 h exposure): 0.1174 µM; effect on cell counts (in words) (RUES2-GLR cells): cell counts remained constant; Developmental Toxicant Classification [4]: Positive
Nc1cccc2c1C(=O)N(C1CCC(=O)NC1=O)C2=O (stereo not shown) [Pomalidomide] | 95.9 | 95.3 | 95.9 | 0.0661 | 94 | Positive | 0.01911 | 1 | 37.2 |  | 8.72 | 7.3 | 0 | 0 | 0.865 | 0.894 | Positive | Teratogen | 62.1 | 67.4 | effect on SOX17-positive cells (in words) [1]: significant reductions in the SOX17-positive sub-population; IC50 ([1]; 48 h): 0.05 µM; % Max Inhibition ([1]; 48 h exposure): 81%; Cell Count ACC (RUES2-GLR cells; Table S2, 48 h exposure): 0.27 µM; effect on cell counts (in words) (RUES2-GLR cells): cell counts remained constant; Developmental Toxicant Classification [4]: Positive; AC50 [5]: 148 µM; Emax [5]: 88.9%
CN1CCN2c3ccccc3Cc3ccccc3C2C1 (stereo not shown) [Mianserin] | 101 | 101 | 101 | 34.7 | 122 | Positive |  | 1 | 97.7 | 18.6008 | 2.7 | 3.98 | 0 |  |  |  | Positive | Teratogen | 4.94 | 5.45 | DevTox ACC ([1]; 48 h): 13.5618 µM; AC50 [1, 12]: 34.9 µM; CC50 at 48 h (in vitro): 33.6 µM; hPST TC50 (H9 human ESC line; [13]): 60 µM; hPST TC50 (H9 human ESC line; hPST cytotoxicity): 60 µM; DT Class. ([4]; chemicals common with hPST): Pos; AC50 [5]: 85.1 µM; Emax [5]: 13.7%
CCCc1cc(=O)[nH]c(=S)[nH]1 | 16.6 | 14.7 | 16.6 |  |  | Negative | >200 | 0 | 12.9 | >200 | 7.44 | 8.97 | 0 | 1 | 0.944 | 0.969 |  | Teratogen | 0.595 | 0.601 | hit call designation (in words) [1]: false negative; Emax [1, 14]: 0 to 20%; DT Class. [4, 11]: Pos
NNC(=O)c1ccncc1 [Isoniazid] | 3.99 | 3.77 | 3.99 |  |  | Negative | >200 | 0 | 7.42 | >200 | 14 | 13.9 | 0 | 0 | 0.794 | 0.781 | Negative | Non-Teratogen | 0.685 | 0.538 | DT Class. [4, 11]: Neg
COc1cc2ncnc(Nc3ccc(F)c(Cl)c3)c2cc1OCCCN1CCOCC1 [Gefitinib] |  | 102 | 101 | 5.75 | 101 |  | 4.584 |  |  | 5.08 | 10.5 | 7.83 | 0 |  |  |  |  |  | 5.99 | 4.85 | AC50 [1, 12]: 5.75 µM; CC50 at 48 h (in vitro): 6.6 µM; hPST TC50 (H9 human ESC line; [13]): 10 µM; hPST TC50 (H9 human ESC line; hPST cytotoxicity): 10 µM; AC50 [5]: 6.35 µM; Emax [5]: 3.17%
OB(O)O [Boric acid] |  |  |  |  |  | Negative | >200 | 0 |  |  |  |  | 0 | 0 | 0.818 | 0.83 |  | Teratogen | 0.45 | 0.453 | hit call designation (in words) [1]: false negative; DevTox % Max Inhibition ([1]; Table S2, percent SOX17-positive cells relative to DMSO): 16.7249%; maximum observed effect level class (% max inhibition) ([1]; stratification of training set chemicals): weak (weak (0–20% max inhibition)); MAX_MEAN ([1]; tcpl plot AEID3094, maximum mean response): 15.7 Percent Activity; MAX_MED ([1]; tcpl plot AEID3094, maximum median response): 16.7 Percent Activity; Cell Count % Max Inhibition (RUES2-GLR cells; Table S2, cell count relative to DMSO): 12.3286%; MAX_MEAN ([2]; tcpl plot AEID3093, maximum mean response): 7.53 Percent Activity; MAX_MED ([2]; tcpl plot AEID3093, maximum median response): 7.06 Percent Activity; DT Class. [4, 11]: Pos
CC1=C2C[C@H]3[C@@H](CC=C4C[C@@H](O)CC[C@@]43C)[C@@H]2CC[C@]12O[C@@H]1C[C@H](C)CN[C@H]1[C@H]2C [Cyclopamine] | 22.7 | 34.8 | 22.7 |  |  | Negative | >200 | 0 | 9.2 |  |  |  | 0 | 1 | 4.76 | 1.9 | Positive | Teratogen | 5.31 | 0.885 | hit call designation (in words) [1]: borderline calls; Emax [1, 14]: 20 to 80%; Cell Count ACC (RUES2-GLR cells; Table S2, 48 h exposure): >200 µM; Emax ([2]; read-out: MAX_MEAN): 3.34%; Emax ([2]; read-out: MAX_MED): 3.36%; DT Class. [4, 11]: Pos; HIT−CALL [5]: 0
